Substitutions are numbered along the chain they refer to.
Experiments:
[1] = Thiobarbituric acid-reactive substance (TBARS) assay for hydroxyl radical; assay type: biochemical; settings: reaction with Cu(II)
Description: Although two Fenton chemistry substrates, hydrogen peroxide and reduced redox-active metal, are produced by 3-HK and 3-HAA, evidence of the hydroxyl radical was not detected using the thiobarbituric acid-reactive substance assay (Huang, X. et al., Biochem. 38:7609–7616 (1999)) (data not shown).

αB-crystallin = molecular target: T1, αB-crystallin (Bos taurus, UniProt P02510); assay: αB-crystallin cross-linking in total calf lens protein (Western blot); settings: metabolite 10 μM, five days 37° C. dark
T1 sequence (P02510 1-175): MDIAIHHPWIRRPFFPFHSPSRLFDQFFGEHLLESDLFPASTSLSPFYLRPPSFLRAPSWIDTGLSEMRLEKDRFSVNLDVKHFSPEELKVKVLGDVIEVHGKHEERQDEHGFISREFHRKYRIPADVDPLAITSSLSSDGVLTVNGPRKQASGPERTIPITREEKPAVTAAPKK

[2] = molecular target: T2, recombinant human αB-crystallin (Homo sapiens, UniProt P02511); assay: Recombinant human αB-crystallin cross-linking (SDS-PAGE, silver stain); assay type: biochemical; settings: 5 days 37° C. dark
T2 construct: gift of Dr. J. Liang, Brigham and Women's Hospital
T2 sequence (P02511 1-175): T1 sequence (P02510 1-175) with A40T, I61F, A132T, A152V
Description: Various solutions containing 3-HK (10 μM) or other kynurenine pathway metabolites (10 μM), Cu(II)-glycine (10 μM), Fe(III)-citrate (10 μM), and triethylenetetramine (TETA, 200 μM), were added in combinations as indicated. […] After incubation, aliquots of the total lens protein solutions were mixed with sample buffer containing 4% SDS and 5% β-mercaptoethanol, heated to 95° C. for 5 minutes, and loaded at 1 μg/lane on a 10–20% Tricine gel (Novex, San Diego, Calif.). […] For the experiments with recombinant αB-crystallin, aliquots of the protein solutions were mixed with sample running buffer containing NuPAGE sample buffer (Novex, San Diego, Calif.) and 10% β-mercaptoethanol, heated to 95° C. for 5 minutes, spun briefly, then loaded on a NuPAGE 4–12% Bis-Tris polyacrylamide gel at 375 ng/lane and electrophoresed with denaturing 3-(N-morpholino)propanesulfonic acid (MOPS)-SDS running buffer according to the manufacturer's recommendations.
To exclude the effects of other lens proteins on the observed findings in FIG. 5, these interactions with purified recombinant human αB-crystallin were examined.

[3] = Superoxide assay (dihydroethidium fluorometric); assay type: biochemical; settings: test compound 10 μM
Description: Superoxide Assay—The fluorometric assay for superoxide is based upon the dihydroethidium (DHE, HYDROETHDNE™) method (Molecular Probes, Eugene, Oreg.) and used according to the manufacturer's instructions. DHE (1 mM) was freshly prepared in 100% argon-sparged DMSO. The reaction solutions were carried out in PBS, pH 7.4, under ambient gas conditions, in 96-well format plates and contained a test compound (KYN, 3-HK, 3-HAA, and ANA, each at 10 μM), DHE (100 μM), +/− Cu(II)-glycine (1 μM) and incubated at 37EC for 60 minutes. […] Abolition of the reading by co-incubation with superoxide dismutase (1000 U/ml) was used for establishing superoxide specificity. The fluorescent readings were recorded by a Packard FLUOROCOUNT™ fluorescent plate reader with a 510 nm excitation filter and 590 nm emission filter. Potassium superoxide dissolved in degassed DMSO was used as a positive control.

[4] = molecular target: bovine serum albumin (BSA) (Bos taurus, UniProt P02769); settings: co-incubation with Cu(II), 5 days 37° C. dark
bovine serum albumin (BSA), sequence (P02769 25-607): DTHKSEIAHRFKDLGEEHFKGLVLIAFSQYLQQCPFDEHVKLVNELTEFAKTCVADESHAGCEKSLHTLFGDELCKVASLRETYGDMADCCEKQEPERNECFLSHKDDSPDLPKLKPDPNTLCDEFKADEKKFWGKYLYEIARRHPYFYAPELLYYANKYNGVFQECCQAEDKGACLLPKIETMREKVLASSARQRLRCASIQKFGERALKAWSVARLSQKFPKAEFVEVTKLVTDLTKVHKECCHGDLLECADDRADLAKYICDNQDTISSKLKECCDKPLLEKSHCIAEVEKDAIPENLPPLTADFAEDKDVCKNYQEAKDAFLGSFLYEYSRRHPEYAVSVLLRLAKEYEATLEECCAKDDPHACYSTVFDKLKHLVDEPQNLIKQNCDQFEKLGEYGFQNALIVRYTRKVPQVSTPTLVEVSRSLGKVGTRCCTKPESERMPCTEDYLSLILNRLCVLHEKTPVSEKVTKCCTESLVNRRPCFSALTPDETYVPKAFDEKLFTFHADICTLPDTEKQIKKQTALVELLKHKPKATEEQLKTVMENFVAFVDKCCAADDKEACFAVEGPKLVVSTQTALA

[5] = Hydrogen peroxide assay (DCF fluorometric); assay type: biochemical; settings: reacting with Cu(II), 37° C., dark
α-crystallin = molecular target: T3, α-crystallin (Bos taurus, UniProt P02470+P02510); assay: α-Crystallin modification under longwave ultraviolet illumination; assay type: biochemical; settings: exposure of α-crystallin in the presence of longwave ultraviolet illumination
T3 sequence (P02470 1-173): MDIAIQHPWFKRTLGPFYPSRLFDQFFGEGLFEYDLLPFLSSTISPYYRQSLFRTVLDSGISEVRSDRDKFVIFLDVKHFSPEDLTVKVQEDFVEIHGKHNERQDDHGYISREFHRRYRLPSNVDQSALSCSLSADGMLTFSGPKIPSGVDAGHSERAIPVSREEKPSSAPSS
T3 sequence (P02510 1-175): T1 sequence (P02510 1-175)

αB-crystallin cross-linking in the presence of Cu(II) (αB-crystallin; Cu(II) 10 μM): dramatically enhanced
capacity of altered α-crystallin to reduce metal and generate hydrogen peroxide (α-crystallin): dramatically enhanced capacity
SMILES: Nc1c(O)cccc1C(=O)CC(N)C(=O)O (stereo not shown) [3-HK, 3-hydroxykynurenine]
evidence of the hydroxyl radical [1]: not detected
αB-crystallin cross-linking (αB-crystallin; no added Cu(II)): apparent dimers and higher order oligomers were observed
αB-crystallin cross-linking ([2]; metabolite 10 μM alone): apparent dimeric and higher order oligomers were observed
αB-crystallin cross-linking with Cu(II) ([2]; metabolite 10 μM and Cu(II) 10 μM): monomeric and apparent dimeric αB-crystallin species were depleted and a prominent high molecular weight smear was observed
effect of Cu(II) on superoxide generation ([3]; Cu(II)-glycine 1 μM): did not promote
superoxide production ([3]; ambient oxygen, dark, 60 minutes): negligible
BSA protein depletion with Cu(II) [4]: the monomer was depleted without emergence of apparent detectable cross-linked species
time dependence of hydrogen peroxide generation [5]: continuous over five hours

— patent US7166472B2, “Method for the identification of agents that inhibit or promote cataracts and uses thereof” (The General Hospital Corporation, priority 2000, dated 2007)
